Results from ChEMBL document CHEMBL6103592, “Discovery of novel thiazole-pleuromutilin derivatives with potent antibacterial activity” (Eur J Med Chem, 2025).
≈ marks a conversion by molar mass, not a printed value. Calls of active or inactive are those of the source. The rule behind the calls is not given here.

How the values were obtained:
Staphylococcus aureus [1] = experiment: (§1) Antibacterial efficacy against methicillin-resistant Staphylococcus aureus ATCC 43300 infected in cyclophosphamide-induced neutropenic systemic infection Kunming mouse model assessed as alveolar epithelial cell necrosis at 20 mg/kg, iv pretreated with cyclophosphamide for 1 hr followed by compound addition and measured after 5 days by light microscopic analysis; format: functional, organism-based; conditions: time 5.0 day
Staphylococcus aureus [2] = experiment: as §1, with “reduction in bacterial load in liver” for “alveolar epithelial cell necrosis”, “days” for “days by light microscopic analysis”; format: functional; conditions: time 5 day
HepG2 [3] = experiment: Cytotoxicity against human HepG2 cells assessed as survival rate at 200 micromol/L incubated for 24 hrs by CCK-8 assay relative to control; format: functional; conditions: HepG2, 24 h, dose 200 µmol/L, read-out: Survival
Staphylococcus aureus [4] = experiment: as §1, with “reduction in bacterial load in kidney” for “alveolar epithelial cell necrosis”, “days” for “days by light microscopic analysis”; format: functional, organism-based; conditions: time 5.0 day
HepG2 [5] = experiment: Cytotoxicity against human HepG2 cells assessed as survival rate incubated for 24 hrs by CCK-8 assay; format: functional, cell-based; conditions: HepG2, 24 h
[6] = Cytotoxicity against human HEK293T cells assessed as survival rate at 200 micromol/L incubated for 24 hrs by CCK-8 assay relative to control; format: toxicity, cell-based, HEK-293T; conditions: dose 200 µmol/L, read-out: Survival
Staphylococcus aureus [7] = experiment: as §1, with “reduction in bacterial load in lung” for “alveolar epithelial cell necrosis”, “days” for “days by light microscopic analysis”; format: functional; conditions: time 5 day
[8] = Cytotoxicity against human HEK293T cells assessed as survival rate incubated for 24 hrs by CCK-8 assay; format: toxicity, cell-based, HEK-293T
Staphylococcus aureus [9] = experiment: Bactericidal activity against methicillin-resistant Staphylococcus aureus ATCC 43300 assessed as increase in colony forming unit count at 1 times MIC incubated after 8 hrs by time-kill assay; format: functional, organism-based
Streptococcus agalactiae = experiment: Antibacterial activity against Streptococcus agalactiae assessed as inhibition of visible bacterial growth incubated for 24 hrs by CLSI based broth microdilution method; format: functional
Staphylococcus aureus [10] = experiment: Drug resistance, ratio of MIC for methicillin-resistant Staphylococcus aureus ATCC 43300 after 21 passages to MIC for methicillin-resistant Staphylococcus aureus ATCC 43300 during first exposure; format: functional
Staphylococcus aureus [11] = experiment: Bactericidal activity against methicillin-resistant Staphylococcus aureus ATCC 43300 at 1 times MIC incubated upto 24 hrs by time-kill assay; format: functional, organism-based
Enterococcus faecalis = experiment: Antibacterial activity against Enterococcus faecalis assessed as inhibition of visible bacterial growth incubated for 24 hrs by CLSI based broth microdilution method; format: functional
Staphylococcus aureus [12] = experiment: Antibacterial activity against methicillin-resistant Staphylococcus aureus ATCC 43300 assessed as post antibiotic effect at 1 times MIC measured after 1 hr; format: functional
Staphylococcus aureus [13] = experiment: Antibacterial activity against methicillin-resistant Staphylococcus aureus ATCC 43300 assessed as post antibiotic effect at 2 times MIC measured after 1 hr; format: functional
Staphylococcus aureus [14] = experiment: Antibacterial activity against methicillin-resistant Staphylococcus aureus ATCC 43300 assessed as reduction in bacterial proteins level at 0.5 to 2 microg/ml measured for 4 hrs; format: functional, organism-based; conditions: dose 0.5-2 µg/ml
Mycoplasma = experiment: Antibacterial activity against Mycoplasma F3 assessed as inhibition of visible bacterial growth incubated for 24 hrs by CLSI based broth microdilution method; format: functional
Staphylococcus aureus [15] = experiment: Antibacterial activity against methicillin resistant Staphylococcus aureus; format: functional
Escherichia coli = experiment: Antibacterial activity against Escherichia coli ATCC 25922 assessed as inhibition of visible bacterial growth incubated for 24 hrs by CLSI based broth microdilution method; format: functional
Staphylococcus aureus [16] = experiment: Antibacterial activity against Staphylococcus aureus ATCC 25923 assessed as inhibition of visible bacterial growth incubated for 24 hrs by CLSI based broth microdilution method; format: functional
Staphylococcus aureus [17] = experiment: Antibacterial activity against methicillin-resistant Staphylococcus aureus ATCC 43300 assessed as post antibiotic effect at 4 times MIC measured after 1 hr; format: functional
Staphylococcus aureus [18] = experiment: Antibacterial activity against methicillin-resistant Staphylococcus aureus ATCC 43300 assessed as inhibition of visible bacterial growth incubated for 24 hrs by CLSI based broth microdilution method; format: functional
Staphylococcus aureus [19] = experiment: Antibacterial activity against methicillin-resistant Staphylococcus aureus ATCC 43300 assessed as post antibiotic effect at 8 times MIC measured after 1 hr; format: functional

SMILES | MIC (Streptococcus agalactiae) [µg/mL] | MIC (Enterococcus faecalis) [µg/mL] | MIC (Mycoplasma) [µg/mL] | MIC (Escherichia coli) [µg/mL] | MIC (Staphylococcus aureus [16]) [µg/mL] | MIC (Staphylococcus aureus [18]) [µg/mL] | further results
C=C[C@]1(C)C[C@@H](OC(=O)CSC(C)(C)CNC(=O)[C@H](N)C(C)C)[C@]2(C)[C@H](C)CC[C@]3(CCC(=O)[C@H]32)[C@@H](C)[C@@H]1O [VALNEMULIN] |  |  |  |  |  |  | Activity (Staphylococcus aureus [1]): inactive; Activity (Staphylococcus aureus [2]): 0.71 log10CFU; viability at 200 µM (HepG2 [3]): 12%; Activity (Staphylococcus aureus [4]): inactive; IC50 (HepG2 [5]): 102 µM; viability at 24 h, 200 µM [6]: 16%; Activity (Staphylococcus aureus [7]): 0.98 log10CFU; IC50 at 24 h [8]: 52 µM
C=C[C@]1(C)C[C@@H](OC(=O)CSCCN(CC)CC)[C@]2(C)[C@H](C)CC[C@]3(CCC(=O)[C@H]32)[C@@H](C)[C@@H]1O [TIAMULIN] | 0.125 (≈ 0.253 µM) | > 32 | 0.008 (≈ 0.0162 µM) | > 32 | 0.25 (≈ 0.506 µM) | 0.25 (≈ 0.506 µM) | Activity (Staphylococcus aureus [1]): Active; Activity (Staphylococcus aureus [9]): Active; Ratio (Staphylococcus aureus [10]): 64; Activity (Staphylococcus aureus [4]): inactive; Activity (Staphylococcus aureus [11]): Active; PAE (Staphylococcus aureus [12]): 0.42 h; PAE (Staphylococcus aureus [13]): 0.91 h; Activity (Staphylococcus aureus [14]): Active; MIC (Staphylococcus aureus [15]): 0.5 µg/mL (≈ 1.01 µM); PAE (Staphylococcus aureus [17]): 1.54 h; PAE (Staphylococcus aureus [19]): 2.2 h
C=C[C@]1(C)C[C@@H](OC(=O)CSc2nc(OC(=O)c3ccccc3F)cs2)[C@]2(C)[C@H](C)CC[C@]3(CCC(=O)[C@H]32)[C@@H](C)[C@@H]1O | 0.125 (≈ 0.203 µM) | > 32 | 0.25 (≈ 0.406 µM) | > 32 | 0.5 (≈ 0.812 µM) | 0.5 (≈ 0.812 µM) | 
C=C[C@]1(C)C[C@@H](OC(=O)CSc2nc(OC(=O)CC(C)(C)C)cs2)[C@]2(C)[C@H](C)CC[C@]3(CCC(=O)[C@H]32)[C@@H](C)[C@@H]1O | 0.125 (≈ 0.211 µM) | > 32 | 0.25 (≈ 0.422 µM) | > 32 | 0.5 (≈ 0.845 µM) | 0.5 (≈ 0.845 µM) | 
C=C[C@]1(C)C[C@@H](OC(=O)CSc2nc(OC(=O)c3cccc(Br)c3)cs2)[C@]2(C)[C@H](C)CC[C@]3(CCC(=O)[C@H]32)[C@@H](C)[C@@H]1O | 0.063 (≈ 0.0931 µM) | > 32 | 0.25 (≈ 0.369 µM) | > 32 | 2 (≈ 2.96 µM) | 0.5 (≈ 0.739 µM) | 
C=C[C@]1(C)C[C@@H](OC(=O)CSc2nc(OC(=O)c3ccccc3Cl)cs2)[C@]2(C)[C@H](C)CC[C@]3(CCC(=O)[C@H]32)[C@@H](C)[C@@H]1O | 0.125 (≈ 0.198 µM) | > 32 | 0.25 (≈ 0.395 µM) | > 32 | 1 (≈ 1.58 µM) | 0.5 (≈ 0.791 µM) | 
CCC[C@@H]1C[C@@H](C(=O)N[C@@H]([C@H]2O[C@H](SC)[C@H](O)[C@@H](O)[C@H]2O)[C@H](C)Cl)N(C)C1 [CLINDAMYCIN] | > 32 | 16 (≈ 37.6 µM) | 1 (≈ 2.35 µM) | 32 (≈ 75.3 µM) | > 32 | > 32 | 
C=C[C@]1(C)C[C@@H](OC(=O)CSc2nc(OC(=O)c3cccc(OC)c3)cs2)[C@]2(C)[C@H](C)CC[C@]3(CCC(=O)[C@H]32)[C@@H](C)[C@@H]1O | 0.063 (≈ 0.1 µM) | > 32 | 0.25 (≈ 0.398 µM) | > 32 | 1 (≈ 1.59 µM) | 1 (≈ 1.59 µM) | 
